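Five compound concentrations were applied to cells in 96-well plates for 48 hours; endpoints were derived by simple linear interpolation of the resulting dose-response curve. GI50 = concentration required for 50% inhibition of growth.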 Active and inactive are the calls of the source. Rule as the data show it: active = GI50 up to about 1.1 µM and inactive = higher.
Key:
Assay in all cases: inhibition of tumour cell growth, NCI panel, 48 h
HCT-116 = tested on: HCT-116
TK-10 = tested on: TK-10
MOLT-4 = tested on: MOLT-4
SF-539 = tested on: SF-539
UACC-62 = tested on: UACC-62
M14 = tested on: M14
DMS-114 = tested on: DMS-114
OVCAR-3 = tested on: OVCAR-3
XF498 = tested on: XF498
HL-60 = tested on: HL-60
SK-MEL-5 = tested on: SK-MEL-5
SK-MEL-28 = tested on: SK-MEL-28
RXF 393 = tested on: RXF 393
M19-MEL = tested on: M19-MEL
SW-620 = tested on: SW-620
NCI-H23 = tested on: NCI-H23
SNB-75 = tested on: SNB-75
OVCAR-8 = tested on: OVCAR-8
786-0 = tested on: 786-0
RPMI-8226 = tested on: RPMI-8226
DMS-273 = tested on: DMS-273
UACC-257 = tested on: UACC-257
SK-MEL-2 = tested on: SK-MEL-2
EKVX = tested on: EKVX
SF-295 = tested on: SF-295
SN12C = tested on: SN12C
U-251 = tested on: U-251
A549 = tested on: A549
HCT-15 = tested on: HCT-15
SF-268 = tested on: SF-268
IGROV-1 = tested on: IGROV-1
RXF 631 = tested on: RXF 631
KM-20L2 = tested on: KM-20L2
OVCAR-4 = tested on: OVCAR-4
CCRF-CEM = tested on: CCRF-CEM
HT-29 = tested on: HT-29
CAKI-1 = tested on: CAKI-1
UO-31 = tested on: UO-31
A498 = tested on: A498
NCI-H522 = tested on: NCI-H522
HOP-92 = tested on: HOP-92
SNB-19 = tested on: SNB-19
Malme-3M = tested on: Malme-3M
K562 = tested on: K562
ACHN = tested on: ACHN
LOX IMVI = tested on: LOX IMVI
OVCAR-5 = tested on: OVCAR-5
COLO 205 = tested on: COLO 205
KM12 = tested on: KM12
NCI-H226 = tested on: NCI-H226
SK-OV-3 = tested on: SK-OV-3
DLD-1 = tested on: DLD-1
HOP-62 = tested on: HOP-62
NCI-H460 = tested on: NCI-H460
LXFL 529 = tested on: LXFL 529
HOP-18 = tested on: HOP-18
SNB-78 = tested on: SNB-78
HCC 2998 = tested on: HCC 2998
SR = tested on: SR

O=C1c2ccccc2C(=O)N1CCCOCc1cnc(O)nc1O
GI50 (HCT-116): > 100 µM (inactive)
GI50 (TK-10): > 100 µM (inactive)
GI50 (MOLT-4): > 100 µM (inactive)
GI50 (SF-539): > 100 µM (inactive)
GI50 (UACC-62): > 100 µM (inactive)
GI50 (M14): > 100 µM (inactive)
GI50 (DMS-114): > 100 µM (inactive)
GI50 (OVCAR-3): > 100 µM (inactive)
GI50 (XF498): > 100 µM (inactive)
GI50 (HL-60): > 100 µM (inactive)
GI50 (SK-MEL-5): > 100 µM (inactive)
GI50 (SK-MEL-28): > 100 µM (inactive)
GI50 (RXF 393): > 100 µM (inactive)
GI50 (M19-MEL): > 100 µM (inactive)
GI50 (SW-620): > 100 µM (inactive)
GI50 (NCI-H23): > 100 µM (inactive)
GI50 (SNB-75): > 100 µM (inactive)
GI50 (OVCAR-8): > 100 µM (inactive)
GI50 (786-0): > 100 µM (inactive)
GI50 (RPMI-8226): > 100 µM (inactive)
GI50 (DMS-273): > 100 µM (inactive)
GI50 (UACC-257): > 100 µM (inactive)
GI50 (SK-MEL-2): > 100 µM (inactive)
GI50 (EKVX): > 100 µM (inactive)
GI50 (SF-295): > 100 µM (inactive)
GI50 (SN12C): > 100 µM (inactive)
GI50 (U-251): > 100 µM (inactive)
GI50 (A549): > 100 µM (inactive)
GI50 (HCT-15): > 100 µM
GI50 (SF-268): > 100 µM (inactive)
GI50 (IGROV-1): > 100 µM (inactive)
GI50 (RXF 631): > 100 µM (inactive)
GI50 (KM-20L2): > 100 µM (inactive)
GI50 (OVCAR-4): > 100 µM (inactive)
GI50 (CCRF-CEM): > 100 µM (inactive)
GI50 (HT-29): > 100 µM (inactive)
GI50 (CAKI-1): > 100 µM (inactive)
GI50 (UO-31): > 100 µM (inactive)
GI50 (A498): > 100 µM (inactive)
GI50 (NCI-H522): > 100 µM (inactive)
GI50 (HOP-92): > 100 µM (inactive)
GI50 (SNB-19): > 100 µM (inactive)
GI50 (Malme-3M): > 100 µM (inactive)
GI50 (K562): > 100 µM (inactive)
GI50 (ACHN): > 100 µM (inactive)
GI50 (LOX IMVI): > 100 µM (inactive)
GI50 (OVCAR-5): > 100 µM (inactive)
GI50 (COLO 205): > 100 µM (inactive)
GI50 (KM12): > 100 µM (inactive)
GI50 (NCI-H226): > 100 µM (inactive)
GI50 (SK-OV-3): > 100 µM (inactive)
GI50 (DLD-1): > 100 µM (inactive)
GI50 (HOP-62): > 100 µM (inactive)
GI50 (NCI-H460): > 100 µM (inactive)
GI50 (LXFL 529): > 100 µM (inactive)
GI50 (HOP-18): > 100 µM (inactive)

CCOC(=O)c1cnc2c(ccc3ncccc32)c1OCC
GI50 (HCT-116): > 100 µM (inactive)
GI50 (TK-10): 60.5 µM (inactive)
GI50 (MOLT-4): 71.8 µM (inactive)
GI50 (SF-539): > 100 µM (inactive)
GI50 (UACC-62): > 100 µM (inactive)
GI50 (M14): > 100 µM (inactive)
GI50 (DMS-114): > 100 µM (inactive)
GI50 (OVCAR-3): > 100 µM (inactive)
GI50 (HL-60): > 100 µM (inactive)
GI50 (SK-MEL-5): > 100 µM (inactive)
GI50 (SK-MEL-28): > 100 µM (inactive)
GI50 (RXF 393): 82 µM (inactive)
GI50 (M19-MEL): > 100 µM (inactive)
GI50 (SW-620): > 100 µM (inactive)
GI50 (NCI-H23): > 100 µM (inactive)
GI50 (SNB-75): > 100 µM (inactive)
GI50 (OVCAR-8): > 100 µM (inactive)
GI50 (786-0): > 100 µM (inactive)
GI50 (DMS-273): > 100 µM (inactive)
GI50 (UACC-257): > 100 µM (inactive)
GI50 (SK-MEL-2): > 100 µM (inactive)
GI50 (EKVX): 84.3 µM (inactive)
GI50 (SN12C): > 100 µM (inactive)
GI50 (U-251): > 100 µM (inactive)
GI50 (SNB-78): > 100 µM (inactive)
GI50 (A549): > 100 µM (inactive)
GI50 (HCT-15): > 100 µM
GI50 (SF-268): > 100 µM (inactive)
GI50 (IGROV-1): > 100 µM (inactive)
GI50 (RXF 631): 84.5 µM (inactive)
GI50 (KM-20L2): > 100 µM (inactive)
GI50 (OVCAR-4): > 100 µM (inactive)
GI50 (CCRF-CEM): 59.6 µM (inactive)
GI50 (HT-29): > 100 µM (inactive)
GI50 (UO-31): > 100 µM (inactive)
GI50 (A498): > 100 µM (inactive)
GI50 (NCI-H522): > 100 µM (inactive)
GI50 (HCC 2998): > 100 µM (inactive)
GI50 (SNB-19): > 100 µM (inactive)
GI50 (Malme-3M): > 100 µM (inactive)
GI50 (K562): > 100 µM (inactive)
GI50 (ACHN): > 100 µM (inactive)
GI50 (LOX IMVI): > 100 µM (inactive)
GI50 (OVCAR-5): > 100 µM (inactive)
GI50 (COLO 205): > 100 µM (inactive)
GI50 (SR): 70.6 µM (inactive)
GI50 (KM12): > 100 µM (inactive)
GI50 (NCI-H226): > 100 µM (inactive)
GI50 (SK-OV-3): > 100 µM (inactive)
GI50 (DLD-1): 77.3 µM (inactive)
GI50 (HOP-62): > 100 µM (inactive)
GI50 (NCI-H460): > 100 µM (inactive)
GI50 (LXFL 529): > 100 µM (inactive)
GI50 (HOP-18): > 100 µM (inactive)

Reference: ChEMBL document CHEMBL1201862, “PubChem BioAssay data set” (2004)
